In PubChem BioAssay AID1963837 (Molecular Pharmacology Branch, DTP, NCI, 2024):

Tested on: 843126-344-R-J1-PDC complex spheroid viability
Assay: Anticancer human tumor 843126-344-R-J1-PDC patient-derived melanoma cell line growth inhibition [POLQ]
Conditions: for IC50: curve of first compound; for viability, T/C: stronger effect = lower value
Method in brief: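 Growth inhibition in 3D: complex spheroids (tumor PDC, HUVEC, MSC) treated with POLQ inhibitor combinations; where Cmax unknown, highest tested concentration 10 microM, except SN-38 at 1 microM.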

[1] = second compound 0.0316 µM, first compound 0.0316 µM
[2] = second compound 0.0316 µM, first compound 0.1 µM
[3] = second compound 0.0316 µM, first compound 0.316 µM
[4] = second compound 0.0316 µM, first compound 1 µM
[5] = second compound 0.0316 µM, first compound 3.16 µM
[6] = second compound 0.0316 µM, first compound 10 µM
[7] = second compound 0.1 µM, first compound 0.0316 µM
[8] = second compound 0.1 µM, first compound 0.1 µM
[9] = second compound 0.1 µM, first compound 0.316 µM
[10] = second compound 0.1 µM, first compound 1 µM
[11] = second compound 0.1 µM, first compound 3.16 µM
[12] = second compound 0.1 µM, first compound 10 µM
[13] = second compound 0.316 µM, first compound 0.0316 µM
[14] = second compound 0.316 µM, first compound 0.1 µM
[15] = second compound 0.316 µM, first compound 0.316 µM
[16] = second compound 0.316 µM, first compound 1 µM
[17] = second compound 0.316 µM, first compound 3.16 µM
[18] = second compound 0.316 µM, first compound 10 µM
[19] = second compound 1 µM, first compound 0.0316 µM
[20] = second compound 1 µM, first compound 0.1 µM
[21] = second compound 1 µM, first compound 0.316 µM
[22] = second compound 1 µM, first compound 1 µM
[23] = second compound 1 µM, first compound 3.16 µM
[24] = second compound 1 µM, first compound 10 µM
[25] = second compound 3.16 µM, first compound 0.0316 µM
[26] = second compound 3.16 µM, first compound 0.1 µM
[27] = second compound 3.16 µM, first compound 0.316 µM
[28] = second compound 3.16 µM, first compound 1 µM
[29] = second compound 3.16 µM, first compound 3.16 µM
[30] = second compound 3.16 µM, first compound 10 µM
[31] = second compound 10 µM, first compound 0.0316 µM
[32] = second compound 10 µM, first compound 0.1 µM
[33] = second compound 10 µM, first compound 0.316 µM
[34] = second compound 10 µM, first compound 1 µM
[35] = second compound 10 µM, first compound 3.16 µM
[36] = second compound 10 µM, first compound 10 µM
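Throughout, for viability, T/C: spheroids exposed to drugs for seven days before readout.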

For `C=CC(=O)N1CCN(c2nc(=O)n(-c3c(C)ccnc3C(C)C)c3nc(-c4c(O)cccc4F)c(F)cc23)C(C)C1` (stereo unspecified) + Cc1cccc(N(C)C(=O)C2C(O)CCN2c2nc(C)cc(C(F)(F)F)c2C#N)c1, the IC50 (second compound 0.0316 µM) was > 10 µM, the IC50 (second compound 0.1 µM) was > 10 µM and the IC50 (second compound 0.316 µM) was > 10 µM. For the same compound, the IC50 (second compound 1 µM) was > 10 µM, the IC50 (second compound 3.16 µM) was > 10 µM and the IC50 (second compound 10 µM) was > 10 µM. For the same compound, the viability, T/C [1] was 87.6%, the viability, T/C [2] was 95.2% and the viability, T/C [3] was 122%. It also gave a viability, T/C [4] of 94.6%, a viability, T/C [5] of 89.6% and a viability, T/C [6] of 78.6%. For the same compound, the viability, T/C [7] was 81.8%, the viability, T/C [8] was 81.3% and the viability, T/C [9] was 94.7%. It also gave a viability, T/C [10] of 97%, a viability, T/C [11] of 80.7% and a viability, T/C [12] of 80.7%. It also gave a viability, T/C [13] of 81.3%, a viability, T/C [14] of 85.6% and a viability, T/C [15] of 91.1%. It also gave a viability, T/C [16] of 107%, a viability, T/C [17] of 84% and a viability, T/C [18] of 69.9%. For the same compound, the viability, T/C [19] was 89.7%, the viability, T/C [20] was 84.7% and the viability, T/C [21] was 84.2%. It also gave a viability, T/C [22] of 90.2%, a viability, T/C [23] of 106% and a viability, T/C [24] of 71.3%. The viability, T/C [25] was 91.2%, the viability, T/C [26] was 74.5% and the viability, T/C [27] was 104%. It also gave a viability, T/C [28] of 91.5%, a viability, T/C [29] of 120% and a viability, T/C [30] of 66.8%. The viability, T/C [31] was 77.1%, the viability, T/C [32] was 81% and the viability, T/C [33] was 89.2%. The viability, T/C [34] was 89.5%, the viability, T/C [35] was 83.5% and the viability, T/C [36] was 70.1%.
With `COc1cc2cc(C(=O)CCC(=O)O)sc2cc1OC` + Cc1cccc(N(C)C(=O)C2C(O)CCN2c2nc(C)cc(C(F)(F)F)c2C#N)c1 the IC50 (second compound 0.0316 µM) was > 10 µM, the IC50 (second compound 0.1 µM) was > 10 µM and the IC50 (second compound 0.316 µM) was > 10 µM. The IC50 (second compound 1 µM) was > 10 µM, the IC50 (second compound 3.16 µM) was > 10 µM and the IC50 (second compound 10 µM) was > 10 µM. For the same compound, the viability, T/C [1] was 95.8%, the viability, T/C [2] was 83.5% and the viability, T/C [3] was 95.1%. The viability, T/C [4] was 98.8%, the viability, T/C [5] was 96.4% and the viability, T/C [6] was 92.4%. The viability, T/C [7] was 91.1%, the viability, T/C [8] was 91.4% and the viability, T/C [9] was 84.9%. For the same compound, the viability, T/C [10] was 83.7%, the viability, T/C [11] was 94.4% and the viability, T/C [12] was 85.2%. It also gave a viability, T/C [13] of 97.2%, a viability, T/C [14] of 92.4% and a viability, T/C [15] of 90.1%. It also gave a viability, T/C [16] of 96.6%, a viability, T/C [17] of 88.8% and a viability, T/C [18] of 89%. It also gave a viability, T/C [19] of 81.7%, a viability, T/C [20] of 84.2% and a viability, T/C [21] of 88.1%. For the same compound, the viability, T/C [22] was 93.5%, the viability, T/C [23] was 91.8% and the viability, T/C [24] was 86.4%. It also gave a viability, T/C [25] of 89.9%, a viability, T/C [26] of 83% and a viability, T/C [27] of 98.5%. For the same compound, the viability, T/C [28] was 98.4%, the viability, T/C [29] was 96.3% and the viability, T/C [30] was 82.3%. It also gave a viability, T/C [31] of 95.7%, a viability, T/C [32] of 90.6% and a viability, T/C [33] of 92.1%. It also gave a viability, T/C [34] of 89.7%, a viability, T/C [35] of 90.9% and a viability, T/C [36] of 86.1%.
With `CC[C@@]1(O)C(=O)OCc2c1cc1n(c2=O)Cc2cc3c(CN(C)C)c(O)ccc3nc2-1` + Cc1cccc(N(C)C(=O)C2C(O)CCN2c2nc(C)cc(C(F)(F)F)c2C#N)c1 the IC50 (second compound 0.0316 µM) was > 0.1 µM, the IC50 (second compound 0.1 µM) was > 0.1 µM and the IC50 (second compound 0.316 µM) was > 0.1 µM. For the same compound, the IC50 (second compound 1 µM) was > 0.1 µM, the IC50 (second compound 3.16 µM) was > 0.1 µM and the IC50 (second compound 10 µM) was 0.0972 µM. It also gave a viability, T/C (second compound 0.0316 µM, first compound 0.000316 µM) of 98%, a viability, T/C (second compound 0.0316 µM, first compound 0.001 µM) of 105% and a viability, T/C (second compound 0.0316 µM, first compound 0.00316 µM) of 89.8%. For the same compound, the viability, T/C (second compound 0.0316 µM, first compound 0.01 µM) was 103%, the viability, T/C [1] was 59.9% and the viability, T/C [2] was 52.5%. The viability, T/C (second compound 0.1 µM, first compound 0.000316 µM) was 86%, the viability, T/C (second compound 0.1 µM, first compound 0.001 µM) was 92.9% and the viability, T/C (second compound 0.1 µM, first compound 0.00316 µM) was 110%. The viability, T/C (second compound 0.1 µM, first compound 0.01 µM) was 80.9%, the viability, T/C [7] was 67.1% and the viability, T/C [8] was 59.7%. It also gave a viability, T/C (second compound 0.316 µM, first compound 0.000316 µM) of 106%, a viability, T/C (second compound 0.316 µM, first compound 0.001 µM) of 102% and a viability, T/C (second compound 0.316 µM, first compound 0.00316 µM) of 93.1%. The viability, T/C (second compound 0.316 µM, first compound 0.01 µM) was 83.9%, the viability, T/C [13] was 70.7% and the viability, T/C [14] was 58.5%. It also gave a viability, T/C (second compound 1 µM, first compound 0.000316 µM) of 78.1%, a viability, T/C (second compound 1 µM, first compound 0.001 µM) of 113% and a viability, T/C (second compound 1 µM, first compound 0.00316 µM) of 89.3%. For the same compound, the viability, T/C (second compound 1 µM, first compound 0.01 µM) was 90.3%, the viability, T/C [19] was 74% and the viability, T/C [20] was 52.8%. It also gave a viability, T/C (second compound 3.16 µM, first compound 0.000316 µM) of 101%, a viability, T/C (second compound 3.16 µM, first compound 0.001 µM) of 96.1% and a viability, T/C (second compound 3.16 µM, first compound 0.00316 µM) of 108%. For the same compound, the viability, T/C (second compound 3.16 µM, first compound 0.01 µM) was 105%, the viability, T/C [25] was 70% and the viability, T/C [26] was 52.3%. The viability, T/C (second compound 10 µM, first compound 0.000316 µM) was 84.6%, the viability, T/C (second compound 10 µM, first compound 0.001 µM) was 83.9% and the viability, T/C (second compound 10 µM, first compound 0.00316 µM) was 74.6%. It also gave a viability, T/C (second compound 10 µM, first compound 0.01 µM) of 87.8%, a viability, T/C [31] of 66.6% and a viability, T/C [32] of 49.6%.
